Values joined by “and” are separate entries in the source; they are usually repeats but may differ in a detail not shown here. Equal values may be shown once. Numbers after ± are expanded uncertainties.
Assay: heat capacity at constant pressure per volume; xn = mol fraction of the nth substance listed
Settings: 101 kPa, Liquid, DSC, x2 = 0.695

CCCCCCCCCCCCCCCCC [heptadecane] + N#Cc1ccccc1
Settings	heat capacity
298.05 K	1856100 ± 20000 J/K/m3
298.14 K	1849900 ± 20000 J/K/m3
298.24 K	1857600 ± 20000 J/K/m3
298.34 K	1869500 ± 20000 J/K/m3
298.44 K	1867300 ± 20000 J/K/m3 and 1868100 ± 20000 J/K/m3
298.54 K	1868700 ± 20000 J/K/m3
298.63 K	1857900 ± 20000 J/K/m3
298.73 K	1860800 ± 20000 J/K/m3
298.83 K	1865800 ± 20000 J/K/m3
298.93 K	1874400 ± 20000 J/K/m3
299.02 K	1881300 ± 20000 J/K/m3
299.12 K	1876400 ± 20000 J/K/m3
299.22 K	1870300 ± 20000 J/K/m3
299.32 K	1856400 ± 20000 J/K/m3 and 1858200 ± 20000 J/K/m3
299.42 K	1872800 ± 20000 J/K/m3
299.52 K	1876300 ± 20000 J/K/m3
299.61 K	1873800 ± 20000 J/K/m3
299.71 K	1875400 ± 20000 J/K/m3
299.81 K	1870400 ± 20000 J/K/m3
299.91 K	1865300 ± 20000 J/K/m3
300 K	1870300 ± 20000 J/K/m3
300.1 K	1879700 ± 20000 J/K/m3
300.2 K	1876100 ± 20000 J/K/m3
300.3 K	1884400 ± 20000 J/K/m3
300.4 K	1880100 ± 20000 J/K/m3
300.49 K	1877500 ± 20000 J/K/m3
300.59 K	1873500 ± 20000 J/K/m3
300.69 K	1871300 ± 20000 J/K/m3
300.79 K	1885700 ± 20000 J/K/m3 and 1882900 ± 20000 J/K/m3
300.89 K	1883300 ± 20000 J/K/m3
300.98 K	1885200 ± 20000 J/K/m3
301.08 K	1880800 ± 20000 J/K/m3
301.18 K	1881200 ± 20000 J/K/m3
301.28 K	1861100 ± 20000 J/K/m3
301.37 K	1877300 ± 20000 J/K/m3
301.47 K	1892900 ± 20000 J/K/m3
301.57 K	1896800 ± 20000 J/K/m3
301.67 K	1885900 ± 20000 J/K/m3 and 1887800 ± 20000 J/K/m3
301.77 K	1883300 ± 20000 J/K/m3
301.87 K	1884700 ± 20000 J/K/m3
301.96 K	1888400 ± 20000 J/K/m3
302.06 K	1899800 ± 20000 J/K/m3
302.16 K	1898500 ± 20000 J/K/m3
302.26 K	1888500 ± 20000 J/K/m3
302.35 K	1894400 ± 20000 J/K/m3
302.45 K	1890300 ± 20000 J/K/m3
302.55 K	1891200 ± 20000 J/K/m3
302.65 K	1899800 ± 20000 J/K/m3 and 1900100 ± 20000 J/K/m3
302.75 K	1891400 ± 20000 J/K/m3
302.85 K	1889600 ± 20000 J/K/m3
302.95 K	1885100 ± 20000 J/K/m3
303.15 K	1906400 ± 20000 J/K/m3
303.35 K	1896200 ± 20000 J/K/m3
303.45 K	1894500 ± 20000 J/K/m3
303.55 K	1902400 ± 20000 J/K/m3
303.65 K	1898100 ± 20000 J/K/m3
303.75 K	1898100 ± 20000 J/K/m3
303.85 K	1893900 ± 20000 J/K/m3
304.05 K	1908600 ± 20000 J/K/m3
304.15 K	1904800 ± 20000 J/K/m3
304.25 K	1897700 ± 20000 J/K/m3 and 1899000 ± 20000 J/K/m3
304.35 K	1888500 ± 20000 J/K/m3 and 1889600 ± 20000 J/K/m3
304.45 K	1900600 ± 20000 J/K/m3
304.55 K	1901500 ± 20000 J/K/m3
304.65 K	1903900 ± 20000 J/K/m3
304.75 K	1894400 ± 20000 J/K/m3
304.85 K	1881800 ± 20000 J/K/m3
304.95 K	1915800 ± 20000 J/K/m3
305.05 K	1912200 ± 20000 J/K/m3
305.15 K	1901900 ± 20000 J/K/m3
305.25 K	1924700 ± 20000 J/K/m3
305.35 K	1907800 ± 20000 J/K/m3
305.45 K	1925500 ± 20000 J/K/m3
305.55 K	1943100 ± 20000 J/K/m3
305.65 K	1963900 ± 20000 J/K/m3
305.75 K	1942400 ± 20000 J/K/m3
305.85 K	1924200 ± 20000 J/K/m3
305.95 K	1983400 ± 20000 J/K/m3
306.05 K	1910400 ± 20000 J/K/m3
306.15 K	2011200 ± 20000 J/K/m3
306.25 K	1898300 ± 20000 J/K/m3
306.35 K	2003200 ± 20000 J/K/m3
306.45 K	1935800 ± 20000 J/K/m3
306.55 K	2021100 ± 20000 J/K/m3
306.65 K	1945600 ± 20000 J/K/m3
306.75 K	2006800 ± 20000 J/K/m3
306.85 K	1978000 ± 20000 J/K/m3
307.05 K	2038400 ± 22000 J/K/m3
307.15 K	2126900 ± 28000 J/K/m3
307.25 K	1846500 ± 38000 J/K/m3
307.35 K	1804900 ± 21000 J/K/m3
307.45 K	1791700 ± 20000 J/K/m3
307.55 K	1787300 ± 20000 J/K/m3
307.65 K	1779800 ± 20000 J/K/m3
307.75 K	1775700 ± 20000 J/K/m3
307.85 K	1767300 ± 20000 J/K/m3
307.95 K	1764000 ± 20000 J/K/m3
308.05 K	1758800 ± 20000 J/K/m3
308.15 K	1759200 ± 20000 J/K/m3
308.23 K	1750200 ± 20000 J/K/m3
308.35 K	1756500 ± 20000 J/K/m3
308.45 K	1756400 ± 20000 J/K/m3

Source: the NIST ThermoML archive (doi:10.1016/j.jct.2012.12.001)
